Measured values reported in US11761045B2, “Splice variants associated with neomorphic SF3B1 mutants” (Eisai R&D Management Co., Ltd., priority 2015, dated 2023).

Columns and labels:
[1] = tested on: Nalm-6 SF3B1^K700E xenograft tumors; experiment: Splicing modulation and compound concentration in xenograft tumors after single IV dose; assay type: in vivo, CB17-SCID mice; conditions: single IV dose 5 mg/kg
Experimental: (§1) In addition, the ability of E7107 to modulate splicing was tested in mice bearing human tumor xenografts. Nalm-6 isogenic xenograft mice were generated by subcutaneously implanting 10×10^6 Nalm-6 isogenic cells into the flank of CB17-SCID mice, and tumors from these mice were collected at different timepoints after a single intravenous (IV) dose of E7107 (5 mg/kg) and analyzed to determine compound concentrations and splicing regulation. RNA was isolated from the tumors using RiboPure™ RNA purification kit (Ambion®) and used for NanoString® assay or qPCR. The RNA was retrotranscribed according to the instructions of the SuperScript® VILO™ cDNA synthesis kit (Invitrogen™) and 0.04 μl of cDNA was used for qPCR. qPCR for pre-mRNA EIF4A1 and mature mRNA […] and pharmacokinetic evaluation were performed as described in Eskens, F. A. et al. “Phase I pharmacokinetic and pharmacodynamic study of the first-in-class spliceosome inhibitor E7107 in patients with advanced solid tumors.” Clin Cancer Res 19, 6296-6304, doi:10.1158/1078-0432.CCR-13-0485 (2013). The primers and probes used for ZDHHC16 were the following: FW 5′-[…] (SEQ ID NO: 1194), RW 5′ […] (SEQ ID NO: 1195) and probe 5′ FAM […] (SEQ ID NO: 1196). The primers and probes used for COASY were the following: FW 5′-CGGTGGTGCAAGTGGAA (SEQ ID NO: 1197), RW 5′-[…] (SEQ ID NO: 1198) and probe 5′-FAM-[…] (SEQ ID NO: 1199).

[2] = tested on: Nalm-6 SF3B1^K700K xenograft tumors; experiment: as above; assay type: in vivo, CB17-SCID mice; conditions: single IV dose 5 mg/kg
Experimental: as §1

[3] = biological target: SF3B1^K700E (Homo sapiens, UniProt O75533+Q7RTV0, K700E); experiment: Competitive binding assay (SPA, 3H-probe molecule) with Flag-tag SF3B1 from 293F cells; design: expressed in transfected cells; host or cells: 293F cells (Life Technologies), transient transfection with pFLAG-CMV-2-SF3B1 K700E; conditions: one nM 3H-probe; Flag-tag SF3B1^K700E from transfected 293F cells; read-out: IC50, competitive inhibition of binding of the 3H-probe molecule
Experimental: The ability of E7107 to bind both SF3B1^WT and SF3B1^K700E proteins was evaluated in a competitive binding assay using Flag-tag SF3B1 proteins immunoprecipitated with anti-Flag antibody from transiently transfected 293F cells. Batch immobilization of antibody to beads was prepared by incubating 80 μg of anti-SF3B1 antibody (MBL International) and 24 mg anti-mouse PVT SPA scintillation beads (PerkinElmer) for 30 minutes. After centrifugation, the antibody-bead mixture was resuspended in PBS supplemented with PhosSTOP phosphatase inhibitor cocktail (Roche) and complete ULTRA protease inhibitor cocktail (Roche). Nuclear extracts were prepared by diluting 40 mg into a total volume of 16 mL PBS with phosphatase and protease inhibitors, and the mixture was centrifuged. The supernatant was transferred into a clean tube, and the antibody-bead mixture was added and incubated for two hours. The beads were collected by centrifuging, washed twice with PBS+0.1% Triton X-100, and resuspended with 4.8 mL of PBS. 100 μL binding reactions were prepared using slurry and varying concentrations of E7107. […] The mixture was incubated at room temperature for 15 minutes, and luminescence signals were read using a MicroBeta2 Plate Counter (PerkinElmer).

Chain of SF3B1^K700E (Q15393 whole entry, stated change not applied): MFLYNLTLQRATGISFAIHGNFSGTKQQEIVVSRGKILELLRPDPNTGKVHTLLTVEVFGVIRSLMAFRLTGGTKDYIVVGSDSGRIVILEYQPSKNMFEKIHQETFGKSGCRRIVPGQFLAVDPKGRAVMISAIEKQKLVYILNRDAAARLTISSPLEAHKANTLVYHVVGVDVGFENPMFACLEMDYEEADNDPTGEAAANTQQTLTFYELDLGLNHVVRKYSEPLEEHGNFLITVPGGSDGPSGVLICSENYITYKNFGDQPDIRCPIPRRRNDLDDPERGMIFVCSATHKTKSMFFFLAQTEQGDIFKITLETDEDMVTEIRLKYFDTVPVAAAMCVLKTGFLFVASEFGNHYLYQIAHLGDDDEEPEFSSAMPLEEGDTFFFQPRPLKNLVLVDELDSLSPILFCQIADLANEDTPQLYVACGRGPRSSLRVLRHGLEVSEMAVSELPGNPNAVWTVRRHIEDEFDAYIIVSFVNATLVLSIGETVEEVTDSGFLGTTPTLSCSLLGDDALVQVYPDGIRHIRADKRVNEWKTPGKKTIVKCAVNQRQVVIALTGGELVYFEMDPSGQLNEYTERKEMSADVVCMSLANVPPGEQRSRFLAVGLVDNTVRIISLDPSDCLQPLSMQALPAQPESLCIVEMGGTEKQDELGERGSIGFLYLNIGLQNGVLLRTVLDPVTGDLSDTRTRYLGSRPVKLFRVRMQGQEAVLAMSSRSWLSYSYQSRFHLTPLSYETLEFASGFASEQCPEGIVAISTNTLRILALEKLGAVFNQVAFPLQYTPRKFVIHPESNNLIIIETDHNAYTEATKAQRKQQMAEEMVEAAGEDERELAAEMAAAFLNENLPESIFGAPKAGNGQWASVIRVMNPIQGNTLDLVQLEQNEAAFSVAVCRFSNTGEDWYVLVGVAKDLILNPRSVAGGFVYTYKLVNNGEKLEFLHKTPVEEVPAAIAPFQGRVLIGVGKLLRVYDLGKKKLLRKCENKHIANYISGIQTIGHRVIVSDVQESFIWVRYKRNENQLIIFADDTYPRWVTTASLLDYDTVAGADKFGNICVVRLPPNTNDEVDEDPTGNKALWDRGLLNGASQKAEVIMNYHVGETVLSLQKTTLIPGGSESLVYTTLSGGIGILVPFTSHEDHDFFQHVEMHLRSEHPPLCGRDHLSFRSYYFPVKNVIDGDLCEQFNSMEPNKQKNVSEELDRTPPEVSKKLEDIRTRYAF
Chain of SF3B1^K700E (Q9BWJ5 whole entry, further chain): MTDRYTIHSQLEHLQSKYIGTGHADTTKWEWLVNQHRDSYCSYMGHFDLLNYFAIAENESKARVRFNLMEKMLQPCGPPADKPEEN
Chain of SF3B1^K700E (Q7RTV0 whole entry): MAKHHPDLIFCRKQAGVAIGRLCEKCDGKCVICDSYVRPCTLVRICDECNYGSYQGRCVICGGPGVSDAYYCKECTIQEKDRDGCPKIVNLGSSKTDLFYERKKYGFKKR
Chain of SF3B1^K700E (O75533 whole entry K700E): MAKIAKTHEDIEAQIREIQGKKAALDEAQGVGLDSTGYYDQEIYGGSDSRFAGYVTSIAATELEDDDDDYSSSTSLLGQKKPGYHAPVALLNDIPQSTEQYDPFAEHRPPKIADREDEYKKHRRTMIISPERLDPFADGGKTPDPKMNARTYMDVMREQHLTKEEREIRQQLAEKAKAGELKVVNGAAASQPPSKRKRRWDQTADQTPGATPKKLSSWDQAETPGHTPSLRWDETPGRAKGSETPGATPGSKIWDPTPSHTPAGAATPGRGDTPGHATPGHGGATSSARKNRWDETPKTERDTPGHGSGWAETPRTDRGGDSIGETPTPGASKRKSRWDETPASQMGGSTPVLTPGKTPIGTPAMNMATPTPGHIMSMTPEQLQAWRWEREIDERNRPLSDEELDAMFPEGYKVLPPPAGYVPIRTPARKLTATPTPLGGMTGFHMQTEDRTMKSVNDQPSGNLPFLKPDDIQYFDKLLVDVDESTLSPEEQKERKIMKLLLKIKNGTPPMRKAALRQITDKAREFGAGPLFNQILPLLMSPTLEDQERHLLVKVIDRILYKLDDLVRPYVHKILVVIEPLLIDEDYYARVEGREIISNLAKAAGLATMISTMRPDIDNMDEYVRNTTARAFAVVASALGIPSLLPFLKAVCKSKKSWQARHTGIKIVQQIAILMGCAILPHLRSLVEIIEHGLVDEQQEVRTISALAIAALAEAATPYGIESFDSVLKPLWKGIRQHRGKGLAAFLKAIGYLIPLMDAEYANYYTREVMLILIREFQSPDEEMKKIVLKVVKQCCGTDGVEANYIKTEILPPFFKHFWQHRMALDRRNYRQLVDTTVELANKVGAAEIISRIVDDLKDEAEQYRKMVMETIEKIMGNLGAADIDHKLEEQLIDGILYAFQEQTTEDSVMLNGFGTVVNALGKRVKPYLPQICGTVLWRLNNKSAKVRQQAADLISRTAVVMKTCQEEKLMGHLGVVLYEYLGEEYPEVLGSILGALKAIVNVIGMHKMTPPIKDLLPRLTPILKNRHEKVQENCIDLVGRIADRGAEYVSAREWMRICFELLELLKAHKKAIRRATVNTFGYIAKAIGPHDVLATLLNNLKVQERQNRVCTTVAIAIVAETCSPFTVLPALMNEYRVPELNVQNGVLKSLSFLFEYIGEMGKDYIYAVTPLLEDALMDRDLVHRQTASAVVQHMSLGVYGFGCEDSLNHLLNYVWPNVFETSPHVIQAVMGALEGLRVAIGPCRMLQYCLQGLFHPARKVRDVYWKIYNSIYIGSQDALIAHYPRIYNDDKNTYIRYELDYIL

`CC[C@H](O)[C@@H](C)[C@H]1O[C@@H]1C[C@@](C)(O)/C=C/C=C(\C)[C@H]1OC(=O)C[C@H](O)CC[C@@](C)(O)[C@@H](OC(=O)N2CCN(C3CCCCCC3)CC2)/C=C/[C@@H]1C` [Compound E7107] was tested, and the “abnormal splicing of COASY and ZDHHC16 in tumor, qPCR” value [1] was “downregulated abnormal splicing”, the “canonical splicing in tumor (EIF4A1 pre-mRNA, SLC25A19 mature mRNA), qPCR” value [1] was “modulated canonical splicing” and the “canonical and aberrant splice mRNA isoforms in tumor, NanoString” value ([1]; timepoints after dose) was “downregulated by E7107 as early as one hour following administration”. The “canonical splicing in tumor (EIF4A1 pre-mRNA, SLC25A19 mature mRNA), qPCR” value [2] was “modulated canonical splicing”, the “canonical and aberrant splice mRNA isoforms in tumor, NanoString” value ([2]; timepoints after dose) was “downregulated by E7107 as early as one hour following administration” and the IC50 [3] was 11 nM.
